# Experiments:
# Type in all cases: in vivo, swine
# [1] = tested on: ovariectomized estrogen primed gilt; experiment: Dose response study of LH release in ovariectomized estrogen primed gilt model (RIA); details: single injection of 50 mcg in SAIB
# Procedure: A dose response study was performed using deslorelin in SAIB in an ovariectomized estrogen primed gilt model (Barb, et al. (1999) Proceed. Int'l. Symp. Control. Rel. Bioact. Mater., 26).
# mature postpartum sows = experiment: Deslorelin injected intravulvar at estrus detection with AI breeding in mature postpartum sows (Example 2)
# Procedure: Sows were assigned randomly in blocks of two to either control or to be injected intravulvar with 50 mcg of deslorelin in SAIB at the time of estrus detection for sows first detected in estrus in the a.m. and 12 hours later for those first detected in estrus in the p.m. Treated animals were bred AI upon detected estrus and again 24 hours later if still in estrus. Controls received a saline injection on first detected estrus behavior estrus detection and were bred according to the farm's normal procedures.
# postpartum sows [2] = experiment: Litter size after deslorelin treatment in postpartum sows at three farm sites (Example 4); details: Tables 3 to 5, regardless of estrus detection
# Excerpt: (§1) Postpartum sows were randomly distributed into three different groups comprised of Controls, Treatment 1, and Treatment 2, with the exception of Site 3, which was divided into two groups, Control and Treatment 2. Control sows were detected for estrus following weaning, and bred following the normal standard operating procedures for the farms on which they resided. Treatment 1 sows were detected for estrus following weaning, and received a 50 mcg dose of deslorelin in the morning when standing and were bred by AI 4 hours later and again at 24+/−2 hours later. Treatment 2 sows received a 50 mcg dose of deslorelin in SAIB at 96 or 120 hours post-weaning and were bred with a single insemination 28+/−2 hours later with no regard to estrus detection.
# postpartum sows [3] = experiment: Pregnancy rate after deslorelin treatment in sows, summary of Tables 2 to 5; details: Table 6
# Procedure: as §1, with “Approximately 170 postpartum sows were randomly divided into two equal groups comprised of controls and treated. Following weaning, the controls were detected for estrus and bred following the normal standard operating procedures for the farms on which they resided. The treated sows received a 50 mcg dose of deslorelin in SAIB at 96 hours post-weaning and were bred with a single insemination 28+/−2 hours later with no regard to estrus detection. The sows were examined for pregnancy by ultrasound at 21 days and slaughtered around 28 days post breeding. The entire reproductive tract was removed and corpora lutea and embryos were counted. Postpartum” for “Postpartum”, “detection. […]” for “detection.”
# postpartum sows [4] = experiment: Timed deslorelin injection 96 hours post-weaning and single timed insemination without estrus detection (Example 3)
# Procedure: Approximately 170 postpartum sows were randomly divided into two equal groups comprised of controls and treated. Following weaning, the controls were detected for estrus and bred following the normal standard operating procedures for the farms on which they resided. The treated sows received a 50 mcg dose of deslorelin in SAIB at 96 hours post-weaning and were bred with a single insemination 28+/−2 hours later with no regard to estrus detection. The sows were examined for pregnancy by ultrasound at 21 days and slaughtered around 28 days post breeding. The entire reproductive tract was removed and corpora lutea and embryos were counted.
# [5] = 50 μg deslorelin acetate intravulvar at first estrus detection, AI, AI again if in estrus next day
structure (smiles),measurement,setting,value
"CCNC(=O)[C@@H]1CCCN1C(=O)[C@H](CCCN=C(N)N)NC(=O)[C@H](CC(C)C)NC(=O)[C@@H](Cc1c[nH]c2ccccc12)NC(=O)[C@H](Cc1ccc(O)cc1)NC(=O)[C@H](CO)NC(=O)[C@H](Cc1c[nH]c2ccccc12)NC(=O)[C@H](Cc1cnc[nH]1)NC(=O)[C@@H]1CCC(=O)N1 [Deslorelin, deslorelin]",Time of LH return to base level,[1],≤ 18 h
same,LH peak relative to normal value,[1]; normal value from Hansel et al. 1973,about twice normal value
same,Length of Estrus,mature postpartum sows; [5],40.81 h
same,Pregnancy Rate,mature postpartum sows; [5],91%
same,"Pregnancy rates, Control versus Treated",mature postpartum sows; 50 μg intravulvar at first estrus detection,no significant difference
same,Litter sizes,postpartum sows [2],normal litter sizes
same,Pregnancy rates,postpartum sows [3],normal pregnancy rates were obtained
same,Pregnancy Rate,"postpartum sows [4]; 50 mcg in SAIB 96 hours post-weaning, single insemination 28+/-2 hours later, no estrus detection",71%
same,Sows Pregnant,"postpartum sows [4]; 50 mcg in SAIB 96 hours post-weaning, single insemination 28+/-2 hours later, 84 sows in group, ultrasound at 21 days",60
same,Embryo Survival,"postpartum sows [4]; 50 mcg in SAIB 96 hours post-weaning, slaughter around 28 days post breeding",64%
same,Pregnancy rates,"postpartum sows [4]; single timed injection post-weaning, single timed insemination, no estrus detection",normal pregnancy rates were attained
